Among the data in patent US7939548B2, “Certain chemical entities, compositions, and methods” (Cytokinetics, Inc., priority 2006, dated 2011) are IC50 values, retold here.

In the assay the target is T1, chicken gizzard smooth muscle myosin subfragment-1 chemically crosslinked to either cardiac or skeletal actin (Gallus gallus, UniProt P10587).
T1 construct: chicken gizzard smooth muscle myosin subfragment-1
In words: Smooth muscle myosin ATPase dose response assay (pyruvate kinase/horseradish peroxidase/pyruvate oxidase-coupled). The class given is biochemical. Conditions: ATPase activity of crosslinked smooth muscle actomyosin (subfragment-1); amplex red fluorescence; 4 parameter fit; read-out: IC50 Arithmetic Mean. As for the experimental part: Screening assays were performed using a pyruvate kinase and lactate dehydrogenase-coupled ATPase assay containing the following reagents: Potassium PIPES (50 mM), MgCl2 (3 mM), KCl (100 mM), ATP (0.15 mM), DTT (1 mM), BSA (0.1 mg/ml), NADH (0.5 mM), PEP (1.5 mM), pyruvate kinase (4 U/ml), lactate dehydrogenase (8 U/ml), and antifoam (50 ppm) (concentrations expressed are final assay concentrations). The pH was adjusted to 6.80 at 22 °C by addition of potassium hydroxide. Lead optimization assays were performed with a more sensitive pyruvate kinase/horseradish peroxidase/pyruvate oxidase-coupled ATPase assay containing the following reagents: Potassium PIPES (12 mM), MgCl2 (2 mM), KCl (100 mM), ATP (0.15 mM), BSA (0.05 mg/ml), potassium phosphate (2 mM), amplex red (0.1 mM), PEP (0.1 mM), pyruvate kinase (4 U/ml), horseradish peroxidase (0.5 U/ml), pyruvate oxidase (0.5 U/ml), and antifoam (50 ppm) (concentrations expressed are final assay concentrations). The pH was adjusted to 7.00 at 22 °C by addition of potassium hydroxide.
The protein components specific to this assay are chicken gizzard smooth muscle myosin subfragment-1 that has been chemically crosslinked to either cardiac or skeletal actin using an excess of 1-Ethyl-3-[3-dimethylaminopropyl]carbodiimide hydrochloride and N-hydroxysuccinimide. The exact concentration of the crosslinked smooth muscle myosin in the assay is determined empirically, by titration to achieve a desired rate of ATP hydrolysis. The concentration varies between protein preparations due to variations in the fraction of active molecules in each preparation.
Compound dose response assays are performed by first preparing a dilution series of test compound, each with an assay mixture containing potassium PIPES, MgCl2, KCl, ATP, BSA, potassium phosphate, amplex red, PEP, crosslinked smooth muscle actomyosin (subfragment-1), antifoam, and water. The assay is started by adding an equal volume of solution containing potassium Pipes, MgCl2, KCl, BSA, potassium phosphate, pyruvate kinase, horseradish peroxidase, pyruvate oxidase, antifoam, and water. ATP hydrolysis is monitored by measuring the fluorescence of amplex red (excitation at 480 nm, emission at 615 nm). The resulting dose response curve is fit by the 4 parameter equation y=Bottom+((Top-Bottom)/(1+((IC50/X)^Hill))). The IC50 is defined as the concentration at which ATPase activity is midway between the top and bottom of the dose response curve.
A word on the IC50: it is the concentration needed to halve the response being measured. For `CNC(=O)CNC(=O)c1cc(-c2ccccc2)cnc1NCCc1cccc(F)c1` [2-[(2-{[2-(3-fluorophenyl)ethyl]amino}-5-phenyl(3-pyridyl))carbonylamino]-N-methylacetamide], the half-inhibitory concentration (IC50) was 15 µM.

Turning to `CNC(=O)CNC(=O)c1cc(-c2ccccc2C#N)cnc1NCCc1cccc(F)c1` [2-[(5-(2-cyanophenyl)-2-{[2-(3-fluorophenyl)ethyl]amino}(3-pyridyl))carbonylamino]-N-methylacetamide], the IC50 was found to be 18 µM.

Turning to `CN(C)C(=O)CCCNc1ccc(C(=O)NCc2cccnc2)c(NCCc2cccc(F)c2)n1` [4-[(6-{[2-(3-fluorophenyl)ethyl]amino}-5-[N-(3-pyridylmethyl)carbamoyl](2-pyridyl))amino]-N,N-dimethylbutanamide], the IC50 is 70.3 µM.

For `CN(C)C(=O)CCCCNc1ccc(C(=O)NCc2cccnc2)c(NCCc2cccc(F)c2)n1` [5-[(6-{[2-(3-fluorophenyl)ethyl]amino}-5-[N-(3-pyridylmethyl)carbamoyl](2-pyridyl))amino]-N,N-dimethylpentanamide], the IC50 was determined as 55.1 µM.

Consider `O=C(CCCCNc1ccc(C(=O)NCc2cccnc2)c(NCCc2cccc(F)c2)n1)NCc1cccnc1` [5-[(6-{[2-(3-fluorophenyl)ethyl]amino}-5-[N-(3-pyridylmethyl)carbamoyl](2-pyridyl))amino]-N-(3-pyridylmethyl)pentanamide], for which the 50% inhibitory concentration (IC50) was 49.2 µM.

With `CNC(=O)CCCCNc1ccc(C(=O)NCc2cccnc2)c(NCCc2cccc(F)c2)n1` [5-[(6-{[2-(3-fluorophenyl)ethyl]amino}-5-[N-(3-pyridylmethyl)carbamoyl](2-pyridyl))amino]-N-methylpentanamide], the IC50 is 38 µM.

Consider `O=C(O)c1cc(Br)cnc1NCCc1cccc(F)c1` [5-bromo-2-{[2-(3-fluorophenyl)ethyl]amino}pyridine-3-carboxylic acid], for which the half-maximal inhibitory concentration (IC50) came to 11.2 µM.

In the case of `NC(=O)c1ccc(C(=O)NCc2cccnc2)c(NCCc2cccc(F)c2)n1` [6-{[2-(3-fluorophenyl)ethyl]amino}-5-[N-(3-pyridylmethyl)carbamoyl]pyridine-2-carboxamide], the IC50 came to 14 µM.

For the molecule `N=C(N)c1ccc(C(=O)NCc2cccnc2)c(NCCc2cccc(F)c2)n1` [6-{[2-(3-fluorophenyl)ethyl]amino}-5-[N-(3-pyridylmethyl)carbamoyl]pyridine-2-carboxamidine], the IC50 came to 6.62 µM.

For the molecule `O=C(NCc1cccnc1)c1cccnc1NCCc1cccc(F)c1` [(2-{[2-(3-fluorophenyl)ethyl]amino}(3-pyridyl))-N-(3-pyridylmethyl)carboxamide], the IC50 stood at 26.8 µM.

With `CC(C)=Cc1ccc(C(=O)NCc2cccnc2)c(NCCc2cccc(F)c2)n1` [(2-{[2-(3-fluorophenyl)ethyl]amino}-6-(2-methylprop-1-enyl)(3-pyridyl))-N-(3-pyridylmethyl)carboxamide], the IC50 stood at 0.347 µM.

On to `COCCCc1ccc(C(=O)NCc2cccnc2)c(NCCc2cccc(F)c2)n1` [(2-{[2-(3-fluorophenyl)ethyl]amino}-6-(3-methoxypropyl)(3-pyridyl))-N-(3-pyridylmethyl)carboxamide], for which the IC50 was determined as 8.18 µM.

As for `CNC(=O)c1ccc(C(=O)NCc2cccnc2)c(NCCc2cccc(F)c2)n1` [(2-{[2-(3-fluorophenyl)ethyl]amino}-6-(N-methylcarbamoyl)(3-pyridyl))-N-(3-pyridylmethyl)carboxamide], the IC50 was determined as 44.1 µM.

Consider `CNc1ccc(C(=O)NCc2cccnc2)c(NCCc2cccc(F)c2)n1` [(2-{[2-(3-fluorophenyl)ethyl]amino}-6-(methylamino)(3-pyridyl))-N-(3-pyridylmethyl)carboxamide], for which the concentration for half-maximal inhibition (IC50) worked out at 10.9 µM.

Turning to `O=C(NCc1cccnc1)c1ccc(NCCO)nc1NCCc1cccc(F)c1` [(2-{[2-(3-fluorophenyl)ethyl]amino}-6-[(2-hydroxyethyl)amino](3-pyridyl))-N-(3-pyridylmethyl)carboxamide], the IC50 amounted to 13.1 µM.
